From the CheMixHub ionic liquid set

Assay: xn = mol fraction of the nth substance listed
Details: 101 kPa

Cc1ncc(C[n+]2csc(CCO)c2C)c(N)n1.Cl.[Cl-] + CCCCCCCCCCCCOS(=O)(=O)[O-].[Na+] + O
electrical conductivity [S/m]
Details	308.15 K	318.15 K
x2 = 0, x1 = 1.8e-07	0.00293	0.00286
x2 = 0, x1 = 9e-07	0.00544	0.00608
x2 = 0, x1 = 1.8e-06	0.00836	0.00964
x2 = 7.35e-06, x1 = 1.8e-07	0.00693	0.00698
x2 = 7.35e-06, x1 = 9e-07	0.00954	0.0104
x2 = 7.35e-06, x1 = 1.8e-06	0.0129	0.0147
x2 = 1.463e-05, x1 = 1.8e-07	0.0109	0.0112
x2 = 1.463e-05, x1 = 9e-07	0.0135	0.0145
x2 = 1.463e-05, x1 = 1.8e-06	0.0172	0.0195
x2 = 2.18e-05, x1 = 1.8e-07	0.0147	0.0153
x2 = 2.18e-05, x1 = 9e-07	0.0175	0.0186
x2 = 2.18e-05, x1 = 1.8e-06	0.0213	0.0241
x2 = 2.901e-05, x1 = 1.8e-07	0.0186	0.0195
x2 = 2.901e-05, x1 = 9e-07	0.0215	0.0226
x2 = 2.901e-05, x1 = 1.8e-06	0.0254	0.0286
x2 = 3.604e-05, x1 = 1.8e-07	0.0224	0.0235
x2 = 3.604e-05, x1 = 9e-07	0.0254	0.0266
x2 = 3.604e-05, x1 = 1.8e-06	0.0296	0.033
x2 = 4.307e-05, x1 = 1.8e-07	0.026	0.0276
x2 = 4.307e-05, x1 = 9e-07	0.0293	0.0306
x2 = 4.307e-05, x1 = 1.8e-06	0.0336	0.0375
x2 = 4.991e-05, x1 = 1.8e-07	0.0297	0.0315
x2 = 4.991e-05, x1 = 9e-07	0.0331	0.0346
x2 = 4.991e-05, x1 = 1.8e-06	0.0376	0.0417
x2 = 5.676e-05, x1 = 1.8e-07	0.0333	0.0355
x2 = 5.676e-05, x1 = 9e-07	0.0367	0.0386
x2 = 5.676e-05, x1 = 1.8e-06	0.0416	0.0458
x2 = 6.361e-05, x1 = 1.8e-07	0.037	0.0393
x2 = 6.361e-05, x1 = 9e-07	0.0404	0.0425
x2 = 6.361e-05, x1 = 1.8e-06	0.0455	0.0498
x2 = 7.027e-05, x1 = 1.8e-07	0.0405	0.043
x2 = 7.027e-05, x1 = 9e-07	0.0441	0.0464
x2 = 7.028e-05, x1 = 1.8e-06	0.0493	0.0537
x2 = 7.694e-05, x1 = 1.8e-07	0.044	0.0467
x2 = 7.694e-05, x1 = 9e-07	0.0477	0.0503
x2 = 7.694e-05, x1 = 1.8e-06	0.0529	0.0576
x2 = 8.361e-05, x1 = 1.8e-07	0.0473	0.0503
x2 = 8.361e-05, x1 = 9e-07	0.0513	0.0542
x2 = 8.361e-05, x1 = 1.8e-06	0.0564	0.0614
x2 = 9.009e-05, x1 = 1.8e-07	0.0507	0.0539
x2 = 9.009e-05, x1 = 9e-07	0.0547	0.058
x2 = 9.009e-05, x1 = 1.8e-06	0.0597	0.0651
x2 = 9.658e-05, x1 = 1.8e-07	0.054	0.0576
x2 = 9.658e-05, x1 = 9e-07	0.0581	0.0618
x2 = 9.658e-05, x1 = 1.8e-06	0.0627	0.0686
x2 = 0.0001031, x1 = 1.8e-07	0.0571	0.0611
x2 = 0.0001031, x1 = 9e-07	0.0612	0.0653
x2 = 0.0001031, x1 = 1.8e-06	0.0656	0.0721
x2 = 0.0001094, x1 = 1.8e-07	0.0601	0.0643
x2 = 0.0001094, x1 = 9e-07	0.0641	0.0687
x2 = 0.0001094, x1 = 1.8e-06	0.0684	0.0754
x2 = 0.0001157, x1 = 1.8e-07	0.0629	0.0676
x2 = 0.0001157, x1 = 9e-07	0.0668	0.0719
x2 = 0.0001157, x1 = 1.8e-06	0.071	0.0784
x2 = 0.000122, x1 = 1.8e-07	0.0658	0.0707
x2 = 0.000122, x1 = 9e-07	0.0696	0.075
x2 = 0.000122, x1 = 1.8e-06	0.0734	0.0813
x2 = 0.0001281, x1 = 1.8e-07	0.0684	0.0736
x2 = 0.0001281, x1 = 9e-07	0.0725	0.0777
x2 = 0.0001281, x1 = 1.8e-06	0.0755	0.0841
x2 = 0.0001342, x1 = 1.8e-07	0.0709	0.0764
x2 = 0.0001342, x1 = 9e-07	0.0746	0.0802
x2 = 0.0001342, x1 = 1.8e-06	0.0776	0.0868
x2 = 0.0001404, x1 = 1.8e-07	0.0732	0.079
x2 = 0.0001404, x1 = 9e-07	0.0766	0.0822
x2 = 0.0001404, x1 = 1.8e-06	0.0797	0.0894
x2 = 0.0001465, x1 = 1.8e-07	0.0752	0.0816
x2 = 0.0001465, x1 = 9e-07	0.0783	0.0841
x2 = 0.0001465, x1 = 1.8e-06	0.0817	0.0919
x2 = 0.0001524, x1 = 1.8e-07	0.077	0.0838
x2 = 0.0001524, x1 = 9e-07	0.08	0.086
x2 = 0.0001524, x1 = 1.8e-06	0.0836	0.0943
x2 = 0.0001584, x1 = 1.8e-07	0.0786	0.0858
x2 = 0.0001584, x1 = 9e-07	0.0816	0.0878
x2 = 0.0001584, x1 = 1.8e-06	0.0855	0.0962
x2 = 0.0001641, x1 = 1.8e-07	0.0802	0.0876
x2 = 0.0001641, x1 = 9e-07	0.0831	0.0895
x2 = 0.0001641, x1 = 1.8e-06	0.0874	0.0981
x2 = 0.0001699, x1 = 1.8e-07	0.0817	0.0893
x2 = 0.0001699, x1 = 9e-07	0.0846	0.0911
x2 = 0.0001699, x1 = 1.8e-06	0.0893	0.1
x2 = 0.0001757, x1 = 1.8e-07	0.083	0.0909
x2 = 0.0001757, x1 = 9e-07	0.086	0.0927
x2 = 0.0001757, x1 = 1.8e-06	0.091	0.102
x2 = 0.0001814, x1 = 1.8e-07	0.0843	0.0924
x2 = 0.0001814, x1 = 9e-07	0.0874	0.0943
x2 = 0.0001814, x1 = 1.8e-06	0.0928	0.104
x2 = 0.000187, x1 = 1.8e-07	0.0855	0.0939
x2 = 0.000187, x1 = 9e-07	0.0887	0.0957
x2 = 0.000187, x1 = 1.8e-06	0.0946	0.106
x2 = 0.0001928, x1 = 1.8e-07	0.0867	0.0952
x2 = 0.0001928, x1 = 9e-07	0.09	0.0974
x2 = 0.0001928, x1 = 1.8e-06	0.0964	0.107
x2 = 0.0001982, x1 = 1.8e-07	0.0879	0.0966
x2 = 0.0001982, x1 = 9e-07	0.0912	0.0991
x2 = 0.0001982, x1 = 1.8e-06	0.0982	0.109
x2 = 0.0002038, x1 = 1.8e-07	0.089	0.0979
x2 = 0.0002038, x1 = 9e-07	0.0924	0.101
x2 = 0.0002038, x1 = 1.8e-06	0.0997	0.111
x2 = 0.0002092, x1 = 1.8e-07	0.0901	0.0992
x2 = 0.0002092, x1 = 9e-07	0.0936	0.102
x2 = 0.0002092, x1 = 1.8e-06	0.101	0.112
x2 = 0.0002147, x1 = 1.8e-07	0.0913	0.1
x2 = 0.0002148, x1 = 9e-07	0.0949	0.104
x2 = 0.0002148, x1 = 1.8e-06	0.102	0.114
x2 = 0.00022, x1 = 1.8e-07	0.0925	0.102
x2 = 0.00022, x1 = 9e-07	0.0961	0.105
x2 = 0.00022, x1 = 1.8e-06	0.104	0.115
x2 = 0.0002254, x1 = 1.8e-07	0.0937	0.103
x2 = 0.0002254, x1 = 9e-07	0.0974	0.107
x2 = 0.0002254, x1 = 1.8e-06	0.105	0.116
x2 = 0.0002306, x1 = 1.8e-07	0.0949	0.104
x2 = 0.0002306, x1 = 9e-07	0.0986	0.108
x2 = 0.0002306, x1 = 1.8e-06	0.106	0.117
x2 = 0.0002358, x1 = 1.8e-07	0.0962	0.105
x2 = 0.0002358, x1 = 9e-07	0.0998	0.109
x2 = 0.0002358, x1 = 1.8e-06	0.107	0.119
x2 = 0.0002411, x1 = 1.8e-07	0.0973	0.106
x2 = 0.0002411, x1 = 9e-07	0.101	0.111
x2 = 0.0002411, x1 = 1.8e-06	0.108	0.12
